Laboratory results as given in paper PMC6272887, “Discovery of Potent c-MET Inhibitors with New Scaffold Having Different Quinazoline, Pyridine and Tetrahydro-Pyridothienopyrimidine Headgroups” (Molecules, 2016).
Where two headings read alike, the source gives them in different places.

Experiments:
[1] = tested on: Hep-G2 (human liver cancer); assay: Cell proliferative assay (MTT), Hep-G2; format: cell-based; details: read-out: Proliferative Inhibition (IC50, µM) Hep-G2
Procedure: (§1) The anti-proliferative activities of synthesized compounds against HeLa, Hep-G2 and MCF-7 cells were evaluated by MTT assay. HeLa cells were grown to log phase in RPMI 1640 medium supplemented with 10% fetal bovine serum. Hep-G2 and MCF-7 cells were grown to log phase in DMEM medium supplemented with 10% fetal bovine serum. After diluting to […] with the complete medium, 100 µL of the obtained cell suspension was added to each well of 96-well culture plates. The subsequent incubation was permitted at 37 °C, 5% CO2 atmosphere for 48 h before the anti-proliferative assessments. Tested samples at pre-set concentrations were added to 6 wells. Before the anti-proliferative assessments, 20 µL of PBS containing 2.5 mg∙mL^−1 of MTT was added to each well. Four h later, 100 µL extraction solution (DMSO) was added to each well and the optical density was measured at a wavelength of 570 nm on an ELISA microplate reader.

c-MET = target: T1, c-MET (Homo sapiens, UniProt P08581); assay: In vitro kinase assay (HTScan MET Kinase Assay Kit, colorimetric ELISA); format: biochemical; details: ATP 10 µM; three independent determinations; read-out: Enzymatic Inhibition (IC50, µM) c-MET
T1 construct: purchased Cell Signaling Technology, Inc
T1 sequence (P08581 25-1390): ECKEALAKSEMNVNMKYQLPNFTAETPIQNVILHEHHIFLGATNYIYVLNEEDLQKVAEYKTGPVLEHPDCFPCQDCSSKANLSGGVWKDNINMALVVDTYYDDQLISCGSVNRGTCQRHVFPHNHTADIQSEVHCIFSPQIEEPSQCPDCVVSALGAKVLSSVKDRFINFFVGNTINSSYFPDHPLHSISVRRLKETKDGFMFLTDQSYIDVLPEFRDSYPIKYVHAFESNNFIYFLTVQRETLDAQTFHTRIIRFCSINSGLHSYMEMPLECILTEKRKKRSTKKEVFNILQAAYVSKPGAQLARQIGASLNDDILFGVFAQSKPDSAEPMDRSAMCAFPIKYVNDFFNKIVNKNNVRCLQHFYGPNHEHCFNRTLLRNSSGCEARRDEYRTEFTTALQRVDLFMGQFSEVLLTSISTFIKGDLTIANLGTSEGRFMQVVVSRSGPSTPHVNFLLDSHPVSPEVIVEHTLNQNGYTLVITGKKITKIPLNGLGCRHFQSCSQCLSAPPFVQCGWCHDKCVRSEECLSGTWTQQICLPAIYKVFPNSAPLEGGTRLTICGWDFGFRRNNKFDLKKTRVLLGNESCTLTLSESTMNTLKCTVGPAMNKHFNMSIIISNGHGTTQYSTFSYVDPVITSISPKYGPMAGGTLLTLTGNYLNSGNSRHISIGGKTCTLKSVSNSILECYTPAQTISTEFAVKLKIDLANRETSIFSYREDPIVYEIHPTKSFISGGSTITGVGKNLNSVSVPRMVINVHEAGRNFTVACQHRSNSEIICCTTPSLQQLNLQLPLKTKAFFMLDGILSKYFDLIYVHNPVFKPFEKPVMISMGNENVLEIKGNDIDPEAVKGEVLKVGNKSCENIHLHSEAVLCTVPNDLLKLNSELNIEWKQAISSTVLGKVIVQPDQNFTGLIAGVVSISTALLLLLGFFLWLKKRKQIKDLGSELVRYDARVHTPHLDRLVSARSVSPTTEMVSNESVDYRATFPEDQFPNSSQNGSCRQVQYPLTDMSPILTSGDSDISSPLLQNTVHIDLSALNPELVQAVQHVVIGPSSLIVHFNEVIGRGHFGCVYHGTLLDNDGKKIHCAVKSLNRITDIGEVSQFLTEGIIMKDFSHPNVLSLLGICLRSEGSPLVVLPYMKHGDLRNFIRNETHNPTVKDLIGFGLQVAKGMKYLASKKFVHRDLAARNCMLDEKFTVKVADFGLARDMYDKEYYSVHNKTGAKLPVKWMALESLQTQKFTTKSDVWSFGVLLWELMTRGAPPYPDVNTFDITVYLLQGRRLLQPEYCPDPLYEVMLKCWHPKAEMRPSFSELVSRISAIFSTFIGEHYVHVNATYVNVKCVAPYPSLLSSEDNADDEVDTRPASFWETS
Procedure: In vitro kinase inhibitory ability was determined using HTScan MET Kinase Assay Kit, HTScan VEGF Receptor 2 Kinase Assay Kit, HTScan c-Kit Kinase Assay Kit, HTScan PDGF Receptor β Kinase Assay Kit and HTScan EGFR Kinase Assay Kit(purchased from Cell Signaling Technology, Inc. Danvers, MA, USA) by colorimetric ELISA assay according to the manufacturer’s instructions. Briefly, reaction cocktail containing recombinant human MET kinase or other kinases were incubated with various concentrations of tested compounds or DMSO (0.1%) for 5 min at room temperature, and then ATP/substrate peptide cocktail was added to the pre-incubated reaction cocktail. After incubation at room temperature for 30 min, the reaction was stopped and transferred to a 96-wellstreptavidin-coated plate, and incubated for 1 h at room temperature. Primary antibody (phosphorylated tyrosine monoclonal antibody (pTyr-100), 1:1000 in PBS/T with 1% bovine serum albumin (BSA)) was added into per well until the wells were washed thrice with PBS/T. After incubated at room temperature for 1 h, phosphorylation of the substrate was monitored with HRP-labeled anti-mouse IgG antibody (1:500 in PBS/T with 1% BSA), followed by a chromogenic reaction. Finally, the kinase assay was detected at 450 nm with microplate reader. The reaction processed with only DMSO (0.1%) served as a vehicle control. […] The kinase assay was performed thrice independently.

[2] = tested on: HeLa (human cervical carcinoma); assay: Cell proliferative assay (MTT), HeLa; format: cell-based; details: HeLa cells, read-out: Proliferative Inhibition (IC50, µM) HeLa
Procedure: as §1

[3] = tested on: MCF-7 (human breast cancer); assay: Cell proliferative assay (MTT), MCF-7; format: cell-based; details: MCF-7 cells, read-out: Proliferative Inhibition (IC50, µM) MCF-7
Procedure: as §1

[4] = Homo sapiens, HepG2, Hep-G2 cells

Compound	IC50 [1, 4] [µM]	melting point [°C]	IC50 (c-MET) [µM]	IC50 ([2]; Homo sapiens, HeLa) [µM]	IC50 ([3]; Homo sapiens, MCF7, MTT assay) [µM]	IC50 ([1]; Hep-G2 cells) [µM]	IC50 [2] [µM]	IC50 ([3]; MTT assay) [µM]
COc1cc2ncnc(Oc3cccc(C(=O)Nc4cc(C(C)(C)C)nn4-c4ccccc4)c3)c2cc1OC [Compound 9a, N-(3-(tert-butyl)-1-phenyl-1H-pyrazol-5-yl)-3-((6,7-dimethoxyquinazolin-4-yl)oxy)benzamide]	38.5 ± 1.3	217 to 219	8.4 ± 0.6	28.7 ± 1.1	46.1 ± 0.8			
CNC(=O)c1cc(Oc2cccc(C(=O)Nc3cc(C(C)(C)C)nn3-c3ccccc3)c2)ccn1 [Compound 9b]	> 100		> 10	> 100	59.7 ± 1.3			
CC(C)(C)OC(=O)N1CCc2c(sc3ncnc(Oc4cccc(C(=O)Nc5cc(C(C)(C)C)nn5-c5ccccc5)c4)c23)C1 [Compound 9c, tert-butyl 4-{3-((3-(tert-butyl)-1-phenyl-1H-pyrazol-5-yl)carbamoyl)phenoxy}-5,6-dihydropyrido(4’,3’:4,5)thieno(2,3-d)pyrimidine-7(8H)-carboxylate]	> 100		> 10	> 100	66.7 ± 1.5			
COc1ccc(NC(=O)c2cccc(Oc3ncnc4cc(OC)c(OC)cc34)c2)cc1OC [Compound 11a, N-(3,4-dimethoxyphenyl)-3-((6,7-dimethoxyquinazolin-4-yl)oxy)benzamide]	> 100	220 to 222	0.52 ± 0.05	14.1 ± 0.16	3.4 ± 0.21			
COc1cc2ncnc(Oc3cccc(C(=O)Nc4ccc(Cl)cc4)c3)c2cc1OC [Compound 11b, N-(4-chlorophenyl)-3-((6,7-dimethoxyquinazolin-4-yl)oxy)benzamide]	9.2 ± 0.17	203 to 205	0.12 ± 0.03	1.8 ± 0.06	7.8 ± 0.14			
COc1cc2ncnc(Oc3cccc(C(=O)Nc4ccc(F)cc4)c3)c2cc1OC [Compound 11c, 3-((6,7-dimethoxyquinazolin-4-yl)oxy)-N-(4-fluorophenyl)benzamide]	10.1 ± 0.2	178 to 180	0.08 ± 0.04	0.9 ± 0.12	5.2 ± 0.36			
CNC(=O)c1cc(Oc2cccc(C(=O)Nc3ccc(OC)c(OC)c3)c2)ccn1 [Compound 11d, 4-{3-((3,4-dimethoxyphenyl)carbamoyl)phenoxy}-N-methylpicolinamide]	> 100		> 10	> 100	71.2 ± 0.34			
CNC(=O)c1cc(Oc2cccc(C(=O)Nc3ccc(Cl)cc3)c2)ccn1 [Compound 11e, 4-{3-((4-chlorophenyl)carbamoyl)phenoxy}-N-methylpicolinamide]	> 100		7.4 ± 0.07	26.4 ± 0.2	34.5 ± 0.36			
CNC(=O)c1cc(Oc2cccc(C(=O)Nc3ccc(F)cc3)c2)ccn1 [Compound 11f, 4-{3-((4-fluorophenyl)carbamoyl)phenoxy}-N-methylpicolinamide]	> 100		5.3 ± 0.05	27.8 ± 0.34	42.1 ± 0.27			
COc1ccc(NC(=O)c2cccc(Oc3ncnc4sc5c(c34)CCN(C(=O)OC(C)(C)C)C5)c2)cc1OC [Compound 11g, tert-butyl 4-{3-((3,4-dimethoxyphenyl)carbamoyl)phenoxy}-5,6-dihydropyrido(4’,3’:4,5)thieno(2,3-d)pyrimidine-7(8H)-carboxylate]	> 100	103 to 105	1.4 ± 0.1	4.4 ± 0.26	17.3 ± 0.38			
CC(C)(C)OC(=O)N1CCc2c(sc3ncnc(Oc4cccc(C(=O)Nc5ccc(Cl)cc5)c4)c23)C1 [Compound 11h, tert-butyl 4-{3-((4-chlorophenyl)carbamoyl)phenoxy}-5,6-dihydropyrido(4’,3’:4,5)thieno(2,3-d)pyrimidine-7(8H)-carboxylate]	61.9 ± 0.23		0.25 ± 0.08	10.7 ± 0.18	22.9 ± 0.22			
CC(C)(C)OC(=O)N1CCc2c(sc3ncnc(Oc4cccc(C(=O)Nc5ccc(F)cc5)c4)c23)C1 [Compound 11i, tert-butyl 4-{3-((4-fluorophenyl)carbamoyl)phenoxy}-5,6-dihydropyrido(4’,3’:4,5)thieno(2,3-d)pyrimidine-7(8H)-carboxylate]	23.2 ± 0.36		0.05 ± 0.02	1.5 ± 0.11	1.1 ± 0.31			
COc1cc2ncnc(Oc3ccc(NC(=O)C(C)(C)C(=O)Nc4ccc(F)cc4)cc3F)c2cc1OC [Compound 13a, N^1-{4-((6,7-dimethoxyquinazolin-4-yl)oxy)-3-fluorophenyl}-N^3-(4-fluorophenyl)-2,2-dimethylmalonamide]	> 100	210 to 212	7.1 ± 0.18	> 100	71.8 ± 0.31			
COc1cc2ncnc(Oc3ccc(NC(=O)C4(C(=O)Nc5ccc(F)cc5)CCC4)cc3F)c2cc1OC [Compound 13c, N-{4-((6,7-dimethoxyquinazolin-4-yl)oxy)-3-fluorophenyl}-N-(4-fluorophenyl)cyclobutane-1,1-dicarboxamide]	49.1 ± 0.3	250 to 252	1.2 ± 0.06	50.1 ± 0.25	> 100			
CNC(=O)c1cc(Oc2ccc(NC(=O)C(C)(C)C(=O)Nc3ccc(F)cc3)cc2)ccn1 [Compound 13d, N^1-(4-fluorophenyl)-2,2-dimethyl-N^3-{4-((2-(methylcarbamoyl)pyridin-4-yl)oxy]phenyl}malonamide]	> 100	113 to 115	> 10	> 100	91.2 ± 0.26			
CC(C)(C)OC(=O)N1CCc2c(sc3ncnc(Oc4ccc(NC(=O)C(C)(C)C(=O)Nc5ccc(F)cc5)cc4F)c23)C1 [Compound 13g, tert-butyl-4-{2-fluoro-4-(3-((4-fluorophenyl)amino)-2,2-dimethyl-3-oxopropanamido)phenoxy}-5,6-dihydropyrido(4’,3’:4,5)thieno(2,3-d)pyrimidine-7(8H)-carboxylate]	> 100	126 to 128	9.4 ± 0.6	> 100	27.7 ± 0.35			
CC(C)(C)OC(=O)N1CCc2c(sc3ncnc(Oc4ccc(NC(=O)C5(C(=O)Nc6ccc(F)cc6)CCC5)cc4F)c23)C1 [Compound 13i, tert-butyl-4-{2-fluoro-4-(1-((4-fluorophenyl)carbamoyl)cyclobutanecarboxamido)phenoxy}-5,6-dihydropyrido(4’,3’:4,5)thieno(2,3-d)pyrimidine-7(8H)-carboxylate]	43.2 ± 0.26	101 to 103	0.25 ± 0.08	4.2 ± 0.31	21.7 ± 0.16			
N-(4-fluorophenyl)-N-{4-((2-(methylcarbamoyl)pyridin-4-yl)oxy)phenyl}cyclobutane-1,1-dicarboxamide [Compound 13f]			> 10			> 100	87.8 ± 0.13	> 100
N-(4-fluorophenyl)-N-{4-((2-(methylcarbamoyl)pyridin-4-yl)oxy)phenyl}cyclopropane-1,1-dicarboxamide [Compound 13e]			> 10			> 100	66.7 ± 0.36	> 100
